In PMC11971306, “Enzymatic Birch reduction via hydrogen atom transfer at [4Fe-4S]-OH2 and [8Fe-9S] clusters” (Nature Communications, 2025):

Experiments:
[1] = target: T1, BzdNO (Azoarcus sp. CIB, UniProt Z9PSW1D6O9); assay: X-ray crystallography, no ligand added; assay type: binding; conditions: weakly occupied, co-purified; partially CoA-free state
T1 construct: BzdN + BzdO heterodimer (catalytic dimer of class I benzoyl-CoA reductase, BZD type) without BzdPQ; C-terminal Strep-tag on BzdO; anaerobic purification; about 95 kDa theoretical, 107 kDa by SEC; BzdN to residue 376, BzdO to residue 442 (domain borders); with Benzoyl-CoA reductase subunit BzdN
T1 sequence (Z9PSW1D6O9 1-437): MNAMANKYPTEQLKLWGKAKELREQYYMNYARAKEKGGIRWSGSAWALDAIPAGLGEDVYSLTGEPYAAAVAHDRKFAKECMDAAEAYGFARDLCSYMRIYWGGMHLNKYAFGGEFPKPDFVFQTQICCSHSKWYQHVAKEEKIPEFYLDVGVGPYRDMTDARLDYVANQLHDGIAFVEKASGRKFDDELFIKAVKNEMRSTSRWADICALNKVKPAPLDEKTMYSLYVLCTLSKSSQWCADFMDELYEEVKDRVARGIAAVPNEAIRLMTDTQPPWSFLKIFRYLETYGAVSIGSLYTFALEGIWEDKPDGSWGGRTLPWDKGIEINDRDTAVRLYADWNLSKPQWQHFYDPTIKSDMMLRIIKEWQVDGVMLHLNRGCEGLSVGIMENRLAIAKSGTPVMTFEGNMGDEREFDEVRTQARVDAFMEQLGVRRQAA
T1 sequence (Z9U3P4NCS5 1-379 partner): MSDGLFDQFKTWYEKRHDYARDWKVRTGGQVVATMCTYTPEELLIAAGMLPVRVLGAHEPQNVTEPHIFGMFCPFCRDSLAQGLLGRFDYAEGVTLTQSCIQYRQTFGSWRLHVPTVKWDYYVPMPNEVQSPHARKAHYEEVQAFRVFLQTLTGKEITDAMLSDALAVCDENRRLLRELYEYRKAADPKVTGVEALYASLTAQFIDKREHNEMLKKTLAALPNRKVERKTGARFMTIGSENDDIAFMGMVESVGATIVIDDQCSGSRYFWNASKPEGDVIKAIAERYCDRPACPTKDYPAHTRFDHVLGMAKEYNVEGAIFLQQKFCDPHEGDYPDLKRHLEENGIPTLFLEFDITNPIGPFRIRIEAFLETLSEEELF

[2] = target: T1, BzdNO; assay: X-ray crystallography, co-crystal; assay type: binding; conditions: 1.4 Å; 5 mM compound, pH 7.5, anaerobic; non-covalent; active site channel of BzdO in front of [4Fe-4S]-OH2 cluster
[3] = target: T1, BzdNO; assay: X-ray crystallography, co-crystal; also turnover in reverse reaction; assay type: binding; conditions: 5 mM compound, pH 7.5, anaerobic; non-covalent; same site as benzoyl-CoA; substrate of the reverse, viologen-dependent rearomatization
[4] = target: T1, BzdNO; assay: rearomatization of dienoyl-CoA to benzoyl-CoA, UPLC; assay type: biochemical; conditions: artificial electron acceptor 0.5 mM; 0.2 mM dienoyl-CoA, pH 8.8, 30 °C, anaerobic

## CC(C)(COP(=O)(O)OP(=O)(O)OC[C@H]1O[C@@H](n2cnc3c(N)ncnc32)[C@H](O)[C@@H]1OP(=O)(O)O)[C@@H](O)C(=O)NCCC(=O)NCCS [CoA]
[1]
  X-ray crystallography, no ligand added: appears to contain besides several solvent molecules a weakly occupied CoA ligand

## CC(C)(COP(=O)(O)OP(=O)(O)OC[C@H]1O[C@@H](n2cnc3c(N)ncnc32)[C@H](O)[C@@H]1OP(=O)(O)O)[C@@H](O)C(=O)NCCC(=O)NCCSC(=O)c1ccccc1 [benzoyl-CoA]
[2]
  X-ray crystallography, co-crystal: determined in a BzCoA bound (pdb 8SO2), dienoyl-CoA bound (pdb 8S1T)

## CC(C)(COP(=O)(O)OP(=O)(O)OC[C@H]1O[C@@H](n2cnc3c(N)ncnc32)[C@H](O)[C@@H]1OP(=O)(O)O)[C@@H](O)C(=O)NCCC(=O)NCCSC(=O)C1=CCCC=C1 [dienoyl-CoA, cyclohexa-1,5-diene-1-carbonyl-CoA]
[3]
  X-ray crystallography, co-crystal; also turnover in reverse reaction: BzdNO in complex with the product dienoyl-CoA reveals the identical binding mode as the substrate

## C[n+]1ccc(-c2cc[n+](C)cc2)cc1 [methyl viologen]
[4]
  rearomatization of dienoyl-CoA to benzoyl-CoA, UPLC: methyl viologen-dependent rearomatization of dienoyl-CoA to BzCoA
